# Activity calls are given as the source filed them.
# Legend:
# [1] = molecular target: T1, Voltage-gated N-type calcium channel alpha-1B subunit/Amyloid beta A4 precursor protein-binding family A member 1 (Homo sapiens, UniProt Q00975+Q02410); type: protein assay
# [2] = molecular target: T2, Dual specificity protein phosphatase 3 (Homo sapiens, UniProt P51452); assay: VHR1 phosphatase inhibitors, primary screen, biochemical, absorbance, uHTS (AID 1654)
# [3] = molecular target: T2, Dual specificity protein phosphatase 3; assay: VHR1 phosphatase inhibitors, biochemical (AID 1878)
# [4] = molecular target: T1, Voltage-gated N-type calcium channel alpha-1B subunit/Amyloid beta A4 precursor protein-binding family A member 1; type: protein assay; remark: listed apart in the source
# [5] = molecular target: T3, Dual specificity protein phosphatase 6 (Rattus norvegicus, UniProt Q64346); assay: inhibition of rat DUSP6 enzyme activity – biochemical, in vitro, primary screen (AID 425)
# T3 sequence (Q64346 whole entry): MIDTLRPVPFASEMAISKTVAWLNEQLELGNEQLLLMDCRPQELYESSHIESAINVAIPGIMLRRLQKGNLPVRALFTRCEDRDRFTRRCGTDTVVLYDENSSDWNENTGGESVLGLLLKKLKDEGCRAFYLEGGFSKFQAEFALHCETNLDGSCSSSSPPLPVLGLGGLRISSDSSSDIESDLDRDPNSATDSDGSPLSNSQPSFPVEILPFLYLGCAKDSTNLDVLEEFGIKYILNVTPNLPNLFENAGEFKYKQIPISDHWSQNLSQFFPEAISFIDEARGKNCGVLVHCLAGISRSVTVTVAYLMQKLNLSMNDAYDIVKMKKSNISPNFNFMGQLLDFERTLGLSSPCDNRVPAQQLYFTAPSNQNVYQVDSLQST
# [6] = molecular target: Albumin (Bos taurus, UniProt P02769); assay: Counterscreen for inhibitors of T-cell receptor (TCR)-CD3 interaction: Fluorescence-based biochemical high throughput dose response assay to identify inhibitors of T-cell receptor (TCR)-CD3 interaction using a TAMRA-labeled BSA probe.; type: functional
# [7] = molecular target: T4, Nucleotide-binding oligomerization domain-containing protein 1 (Homo sapiens, UniProt Q9Y239); assay: blockers of NOD1 pathway activity – revised, SAR follow-up (AID 2333); type: functional
# T4 sequence (Q9Y239 whole entry): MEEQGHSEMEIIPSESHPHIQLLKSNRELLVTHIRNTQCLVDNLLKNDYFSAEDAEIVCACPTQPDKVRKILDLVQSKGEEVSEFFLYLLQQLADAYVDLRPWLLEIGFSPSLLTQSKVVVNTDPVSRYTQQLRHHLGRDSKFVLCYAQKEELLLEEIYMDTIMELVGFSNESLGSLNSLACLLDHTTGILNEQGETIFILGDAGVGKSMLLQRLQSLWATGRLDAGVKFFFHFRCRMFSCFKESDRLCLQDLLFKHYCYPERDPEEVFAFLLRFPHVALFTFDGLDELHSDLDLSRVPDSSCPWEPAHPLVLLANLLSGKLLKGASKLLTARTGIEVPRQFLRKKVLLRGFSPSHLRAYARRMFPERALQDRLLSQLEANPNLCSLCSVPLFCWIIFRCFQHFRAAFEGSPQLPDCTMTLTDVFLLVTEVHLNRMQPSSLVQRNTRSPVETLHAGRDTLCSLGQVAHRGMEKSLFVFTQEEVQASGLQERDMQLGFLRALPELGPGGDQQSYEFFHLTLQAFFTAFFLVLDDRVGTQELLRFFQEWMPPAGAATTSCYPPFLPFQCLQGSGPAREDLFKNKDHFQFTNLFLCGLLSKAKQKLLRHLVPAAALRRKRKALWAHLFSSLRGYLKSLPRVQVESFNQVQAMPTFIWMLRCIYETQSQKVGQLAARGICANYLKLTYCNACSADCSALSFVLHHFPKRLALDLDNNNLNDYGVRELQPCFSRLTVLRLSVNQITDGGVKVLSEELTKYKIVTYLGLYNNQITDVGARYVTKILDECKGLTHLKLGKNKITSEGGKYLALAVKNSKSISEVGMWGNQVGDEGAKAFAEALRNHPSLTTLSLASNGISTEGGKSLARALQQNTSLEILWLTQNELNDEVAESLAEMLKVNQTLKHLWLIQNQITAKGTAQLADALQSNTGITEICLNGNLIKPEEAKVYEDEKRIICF
# [8] = Luminescence Cell-Based Dose Retest to Confirm Inhibitors of Cancer Stem Cells. [Related pubchem assays (depositor defined):AID2717, AID2721]; type: functional; settings: Homo sapiens
# [9] = molecular target: Tumor necrosis factor (Homo sapiens, UniProt P01375); assay: analog potency on TNFa NF-kB signaling – cell-based, revised, SAR follow-up (AID 2337); type: functional
# [10] = tested on: HEK293; assay: cells; settings: Homo sapiens
# [11] = molecular target: Nucleotide-binding oligomerization domain-containing protein 2 (Homo sapiens, UniProt Q9HC29); assay: PubChem AID 2334; type: functional
# [12] = molecular target: Mu-type opioid receptor (Homo sapiens, UniProt P35372); assay: (§1) Counterscreen for agonists of heterodimerization of the mu 1 (OPRM1) and delta 1 (OPRD1) opioid receptors: Luminescence-based cell-based high throughput dose response assay to identify agonists of OPRM1 homodimerization.; type: functional
# Sequence of Mu-type opioid receptor (P35372 whole entry): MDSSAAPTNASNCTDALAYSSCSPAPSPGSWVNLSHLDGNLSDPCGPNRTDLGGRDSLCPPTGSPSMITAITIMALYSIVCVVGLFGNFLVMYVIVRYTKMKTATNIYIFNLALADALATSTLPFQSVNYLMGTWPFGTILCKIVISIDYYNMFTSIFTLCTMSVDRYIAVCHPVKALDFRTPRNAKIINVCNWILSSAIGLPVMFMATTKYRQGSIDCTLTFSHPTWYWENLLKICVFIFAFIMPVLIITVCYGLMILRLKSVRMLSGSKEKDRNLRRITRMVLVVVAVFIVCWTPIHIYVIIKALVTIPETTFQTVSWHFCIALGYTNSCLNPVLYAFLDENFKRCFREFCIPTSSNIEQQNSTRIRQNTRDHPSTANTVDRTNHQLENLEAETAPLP
# [13] = molecular target: 5-hydroxytryptamine receptor 5A (Homo sapiens, UniProt P47898); assay: Counterscreen for agonists of OPRM1-OPRD1 heterodimerization: luminescence-based cell-based high throughput dose response assay to identify agonists of 5-hydroxytryptamine (serotonin) 5A receptor (HTR5A). [Related pubchem assays (depositor defined):AID504326, AID504355, AID504692, AID504904, AID504905]; type: functional
# [14] = molecular target: Delta-type opioid receptor (Homo sapiens, UniProt P41143); assay: as §1, with “of OPRD1” for “of OPRM1”, “homodimerization. [Related pubchem assays (depositor defined):AID504326, AID504355, AID504692, AID504904, AID504905]” for “homodimerization.”; type: functional
# [15] = molecular target: Lysine-specific demethylase 4C (Homo sapiens, UniProt Q9H3R0); assay: inhibition of JMJD2C H3K9me3 demethylation – biochemical, DELFIA europium, cherry-picked samples, dose response (AID 488835); type: functional
# [16] = tested on: INS1; assay: INS-1E survival protection against cytokine death – cell-based, luminescence, retest, dose response (AID 449756); type: functional; settings: Rattus norvegicus;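 note: cell death triggered by IL-1 beta plus TNF-alpha plus IFN-gamma mixture; protective hits raise ATP signal compared with cytokine alone wells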
# [17] = molecular target: Nonstructural protein 1 (Influenza A virus, UniProt Q194T2); type: functional, Influenza A virus (A/California/07/2009(H1N1))
# Sequence of Nonstructural protein 1 (Q194T2 whole entry): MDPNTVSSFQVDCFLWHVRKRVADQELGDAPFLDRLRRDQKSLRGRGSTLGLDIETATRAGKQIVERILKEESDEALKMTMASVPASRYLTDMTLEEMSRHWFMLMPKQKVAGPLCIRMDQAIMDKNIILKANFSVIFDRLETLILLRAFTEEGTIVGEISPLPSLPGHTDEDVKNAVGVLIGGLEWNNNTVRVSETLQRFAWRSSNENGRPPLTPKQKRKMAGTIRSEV
# [18] = Luminescence Cell-Based Dose Response HTS to Identify Inhibitors of 5'UTR Stem-Loop Driven Prion Protein mRNA Translation in H4 Neuroglioblastoma Cells. [Related pubchem assays: 1827 (Project Summary), 1813 (Primary HTS)]; type: functional
# [19] = molecular target: T5, Beta-galactosidase (Escherichia coli, UniProt Q8VNN2); assay: Dose response counterscreen for EBI2 assay utilizing the enzyme, b-galactosidase.; type: functional
# T5 sequence (Q8VNN2 whole entry): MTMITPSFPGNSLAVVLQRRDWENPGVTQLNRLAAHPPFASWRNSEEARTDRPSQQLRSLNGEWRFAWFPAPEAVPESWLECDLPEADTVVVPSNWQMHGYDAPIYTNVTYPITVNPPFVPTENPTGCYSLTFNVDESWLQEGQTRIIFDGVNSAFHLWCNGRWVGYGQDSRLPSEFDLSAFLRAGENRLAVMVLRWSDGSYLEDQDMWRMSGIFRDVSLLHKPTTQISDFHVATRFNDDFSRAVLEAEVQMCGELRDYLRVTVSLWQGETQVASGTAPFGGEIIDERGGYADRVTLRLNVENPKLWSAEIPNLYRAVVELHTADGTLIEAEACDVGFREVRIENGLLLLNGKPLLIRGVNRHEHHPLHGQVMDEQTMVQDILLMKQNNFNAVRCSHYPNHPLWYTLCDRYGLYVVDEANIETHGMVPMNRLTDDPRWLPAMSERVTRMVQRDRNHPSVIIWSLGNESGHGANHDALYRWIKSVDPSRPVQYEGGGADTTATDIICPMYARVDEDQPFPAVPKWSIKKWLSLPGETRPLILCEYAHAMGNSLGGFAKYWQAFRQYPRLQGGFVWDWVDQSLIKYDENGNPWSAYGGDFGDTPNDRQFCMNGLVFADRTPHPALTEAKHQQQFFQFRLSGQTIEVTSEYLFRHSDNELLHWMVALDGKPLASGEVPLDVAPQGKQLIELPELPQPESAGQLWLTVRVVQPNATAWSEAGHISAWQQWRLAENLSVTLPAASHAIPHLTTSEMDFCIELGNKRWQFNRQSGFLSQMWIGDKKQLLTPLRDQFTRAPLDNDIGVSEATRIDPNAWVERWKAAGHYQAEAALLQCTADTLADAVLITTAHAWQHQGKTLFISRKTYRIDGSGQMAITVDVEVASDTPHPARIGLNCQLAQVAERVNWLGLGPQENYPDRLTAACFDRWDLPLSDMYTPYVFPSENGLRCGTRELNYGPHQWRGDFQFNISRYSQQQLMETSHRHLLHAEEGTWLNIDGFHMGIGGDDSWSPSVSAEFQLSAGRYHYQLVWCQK
# [20] = alpha-synuclein stem-loop luciferase translation blockers – H4 neuroglioma cells, luminescence, confirmation (AID 1988); type: functional, cell-based
# [21] = luciferase reporter signal suppression in cells – H4 neuroglioma cells, luminescence, dose response (AID 1990); type: functional, cell-based
# [22] = molecular target: T5, Beta-galactosidase; assay: PubChem AID 485352; type: functional
# [23] = tested on: Vero; assay: cells; type: functional; settings: Chlorocebus sabaeus
# [24] = tested on: HEK293; assay: EBV LMP1 TES2 canonical NF-kB signalling blockers – cell-based, HEK293, luciferase, cherry-pick, dose response (AID 588343); type: functional; settings: Homo sapiens
# [25] = molecular target: T6, Type-1 angiotensin II receptor (Homo sapiens, UniProt P30556); assay: antagonism of angiotensin II type 1 receptor – cell-based, uHTS hits, selectivity assay for APJ receptor antagonist project, dose response (AID 463214); type: functional;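 note: antagonist potency against angiotensin II stimulated AT1 response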
# T6 sequence (P30556 whole entry): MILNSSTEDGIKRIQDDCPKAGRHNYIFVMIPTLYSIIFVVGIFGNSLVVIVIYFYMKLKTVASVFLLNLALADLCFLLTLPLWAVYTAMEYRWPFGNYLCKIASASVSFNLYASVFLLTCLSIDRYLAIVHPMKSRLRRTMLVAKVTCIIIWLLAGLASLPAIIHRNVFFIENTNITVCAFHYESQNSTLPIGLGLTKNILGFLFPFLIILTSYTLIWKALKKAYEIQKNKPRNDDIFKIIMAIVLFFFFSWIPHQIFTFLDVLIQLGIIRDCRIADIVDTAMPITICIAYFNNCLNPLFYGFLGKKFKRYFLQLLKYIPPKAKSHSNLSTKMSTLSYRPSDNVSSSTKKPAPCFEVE
# [26] = tested on: Vero; assay: cells; type: functional, cell-based; settings: Chlorocebus sabaeus
# [27] = tested on: Streptococcus; assay: GAS UMAA2166 growth inhibition – luminescence, BacTiterGlo, counter-screen for streptokinase expression inhibitor project, dose response (AID 1915); type: functional, organism-based;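 note: potency for reduction of bacterial viability or growth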
# [28] = molecular target: T7, Streptokinase A (Streptococcus pyogenes serotype M1, UniProt P10520); assay: viability-normalized secreted streptokinase activity reduction – plasminogen activation absorbance, OD405, dose response (AID 1914); type: functional, Streptococcus pyogenes M1 GAS;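 note: secreted streptokinase activity via plasminogen activation per viability signal from cell pellet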
# T7 sequence (P10520 whole entry): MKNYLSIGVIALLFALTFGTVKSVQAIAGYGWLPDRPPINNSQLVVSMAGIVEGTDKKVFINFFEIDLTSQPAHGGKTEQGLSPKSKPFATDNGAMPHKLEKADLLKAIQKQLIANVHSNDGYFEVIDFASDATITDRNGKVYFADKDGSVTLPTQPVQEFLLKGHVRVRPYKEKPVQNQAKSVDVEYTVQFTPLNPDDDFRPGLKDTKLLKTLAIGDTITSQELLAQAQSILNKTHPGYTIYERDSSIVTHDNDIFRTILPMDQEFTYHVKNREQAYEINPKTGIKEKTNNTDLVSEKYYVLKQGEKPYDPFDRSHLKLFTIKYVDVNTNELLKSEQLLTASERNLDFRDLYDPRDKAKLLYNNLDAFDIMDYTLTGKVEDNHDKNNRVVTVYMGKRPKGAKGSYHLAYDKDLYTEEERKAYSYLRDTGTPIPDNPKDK
# [29] = reduction of Shn3 3'UTR-driven luciferase in osteoblasts – cell-based, Clone20 osteoblasts, firefly luciferase, cherry-picked, dose response (AID 624132); type: functional;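 note: firefly luciferase luminescence from reporter carrying the Shn3 3'UTR in osteoblasts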
# [30] = microbe, parasite or virus in culture; type: functional; settings: Mycobacterium tuberculosis
# [31] = tested on: Streptococcus sp. 'group A'; assay: Streptococcus pyogenes SK(-)GAS viability under kanamycin – luminescence, BacTiterGlo, confirmation, counter-screen for streptokinase expression inhibitor project, dose response (AID 1900); type: functional, organism-based
# [32] = non-specific 3'UTR reporter inhibition in Clone20-Shn3RL – cell-based, Renilla luciferase, cherry-picked, counter-screen for Shn3 inhibitor project, dose response (AID 624133); type: functional
# T2 sequence (P51452 whole entry): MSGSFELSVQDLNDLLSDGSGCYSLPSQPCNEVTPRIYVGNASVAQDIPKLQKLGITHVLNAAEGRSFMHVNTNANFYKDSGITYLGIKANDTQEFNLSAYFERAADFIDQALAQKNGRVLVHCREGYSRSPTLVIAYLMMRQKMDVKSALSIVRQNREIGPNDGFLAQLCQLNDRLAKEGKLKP
# T1 sequence (Q00975 whole entry): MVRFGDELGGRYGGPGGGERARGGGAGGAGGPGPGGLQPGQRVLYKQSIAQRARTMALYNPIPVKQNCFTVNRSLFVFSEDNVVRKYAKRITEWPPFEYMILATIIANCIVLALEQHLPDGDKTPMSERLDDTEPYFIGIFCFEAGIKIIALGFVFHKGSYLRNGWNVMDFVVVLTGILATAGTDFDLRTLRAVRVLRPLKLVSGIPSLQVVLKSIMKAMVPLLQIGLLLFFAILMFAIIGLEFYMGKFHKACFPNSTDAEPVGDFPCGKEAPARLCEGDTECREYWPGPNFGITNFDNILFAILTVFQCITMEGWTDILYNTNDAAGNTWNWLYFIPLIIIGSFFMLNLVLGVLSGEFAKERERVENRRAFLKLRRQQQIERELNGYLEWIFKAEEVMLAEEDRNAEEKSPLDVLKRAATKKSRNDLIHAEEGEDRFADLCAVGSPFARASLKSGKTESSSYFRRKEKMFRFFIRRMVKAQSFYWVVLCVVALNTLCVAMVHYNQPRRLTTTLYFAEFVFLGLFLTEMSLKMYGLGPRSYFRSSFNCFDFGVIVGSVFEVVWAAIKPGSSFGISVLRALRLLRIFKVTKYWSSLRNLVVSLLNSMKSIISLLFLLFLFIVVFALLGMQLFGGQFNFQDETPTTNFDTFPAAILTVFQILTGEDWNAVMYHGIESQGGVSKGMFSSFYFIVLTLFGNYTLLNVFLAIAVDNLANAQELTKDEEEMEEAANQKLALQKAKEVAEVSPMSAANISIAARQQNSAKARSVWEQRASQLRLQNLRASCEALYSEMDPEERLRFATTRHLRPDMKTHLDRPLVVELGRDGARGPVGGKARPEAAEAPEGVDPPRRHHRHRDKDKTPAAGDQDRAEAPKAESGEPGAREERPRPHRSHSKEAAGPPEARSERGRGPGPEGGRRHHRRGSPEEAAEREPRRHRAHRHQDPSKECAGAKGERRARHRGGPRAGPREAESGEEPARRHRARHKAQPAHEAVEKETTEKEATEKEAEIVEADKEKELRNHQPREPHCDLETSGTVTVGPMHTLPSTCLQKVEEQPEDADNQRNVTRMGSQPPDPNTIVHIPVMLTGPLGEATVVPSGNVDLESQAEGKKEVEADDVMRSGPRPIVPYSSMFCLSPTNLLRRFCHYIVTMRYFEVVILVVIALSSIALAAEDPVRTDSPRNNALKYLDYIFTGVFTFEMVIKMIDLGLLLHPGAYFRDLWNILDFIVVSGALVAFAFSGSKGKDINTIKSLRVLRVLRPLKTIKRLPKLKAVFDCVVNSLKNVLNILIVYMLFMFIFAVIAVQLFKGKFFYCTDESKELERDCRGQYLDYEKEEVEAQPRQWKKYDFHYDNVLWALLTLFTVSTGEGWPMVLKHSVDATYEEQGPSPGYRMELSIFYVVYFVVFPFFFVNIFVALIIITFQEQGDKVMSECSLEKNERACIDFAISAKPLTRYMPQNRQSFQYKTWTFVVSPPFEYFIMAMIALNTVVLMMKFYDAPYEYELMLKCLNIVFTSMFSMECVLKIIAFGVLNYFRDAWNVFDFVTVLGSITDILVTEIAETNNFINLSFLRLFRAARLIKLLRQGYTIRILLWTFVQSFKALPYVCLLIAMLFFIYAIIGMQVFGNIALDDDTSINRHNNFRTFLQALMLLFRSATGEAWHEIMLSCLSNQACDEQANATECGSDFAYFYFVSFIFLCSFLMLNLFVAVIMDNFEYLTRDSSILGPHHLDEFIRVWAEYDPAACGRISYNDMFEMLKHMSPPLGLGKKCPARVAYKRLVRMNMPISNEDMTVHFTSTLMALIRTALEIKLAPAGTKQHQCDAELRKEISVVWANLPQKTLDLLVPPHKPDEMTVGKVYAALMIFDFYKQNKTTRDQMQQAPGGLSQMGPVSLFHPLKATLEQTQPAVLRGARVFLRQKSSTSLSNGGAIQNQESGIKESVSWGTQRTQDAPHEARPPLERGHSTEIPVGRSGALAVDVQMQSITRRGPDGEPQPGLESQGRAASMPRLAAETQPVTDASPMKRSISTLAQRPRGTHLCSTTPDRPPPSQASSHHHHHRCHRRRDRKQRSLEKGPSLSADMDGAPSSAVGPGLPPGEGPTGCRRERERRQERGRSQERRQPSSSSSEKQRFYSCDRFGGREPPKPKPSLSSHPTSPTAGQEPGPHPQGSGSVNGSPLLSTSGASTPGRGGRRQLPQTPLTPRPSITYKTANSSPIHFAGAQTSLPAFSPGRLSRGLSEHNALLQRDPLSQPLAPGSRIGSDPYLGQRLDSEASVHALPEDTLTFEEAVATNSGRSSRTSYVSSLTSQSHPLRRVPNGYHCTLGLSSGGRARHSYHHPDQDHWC
# T1 sequence (Q02410 whole entry): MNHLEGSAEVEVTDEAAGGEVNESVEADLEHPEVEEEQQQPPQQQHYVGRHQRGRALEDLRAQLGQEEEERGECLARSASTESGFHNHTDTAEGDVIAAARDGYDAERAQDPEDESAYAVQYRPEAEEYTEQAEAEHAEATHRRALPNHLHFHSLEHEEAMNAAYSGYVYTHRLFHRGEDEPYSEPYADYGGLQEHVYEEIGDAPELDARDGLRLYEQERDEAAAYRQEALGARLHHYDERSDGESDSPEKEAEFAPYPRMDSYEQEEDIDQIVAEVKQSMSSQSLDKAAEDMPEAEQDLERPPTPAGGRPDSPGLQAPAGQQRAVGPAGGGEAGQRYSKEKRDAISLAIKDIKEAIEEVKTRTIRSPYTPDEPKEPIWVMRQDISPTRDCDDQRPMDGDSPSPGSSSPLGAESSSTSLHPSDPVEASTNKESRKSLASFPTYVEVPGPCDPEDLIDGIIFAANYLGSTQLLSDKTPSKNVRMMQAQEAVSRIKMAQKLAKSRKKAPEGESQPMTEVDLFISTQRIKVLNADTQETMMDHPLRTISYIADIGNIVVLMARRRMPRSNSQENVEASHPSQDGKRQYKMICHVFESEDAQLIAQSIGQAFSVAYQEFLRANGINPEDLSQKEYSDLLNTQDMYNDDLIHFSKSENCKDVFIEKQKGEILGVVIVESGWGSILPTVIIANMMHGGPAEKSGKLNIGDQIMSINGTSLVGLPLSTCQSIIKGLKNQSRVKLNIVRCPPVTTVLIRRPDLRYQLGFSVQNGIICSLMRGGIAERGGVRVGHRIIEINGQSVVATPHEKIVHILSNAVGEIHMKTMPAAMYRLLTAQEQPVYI
compound,measurement,setting,value
Cc1cc(=O)oc2cc(OCC(=O)N/N=C/c3cc([N+](=O)[O-])ccc3O)ccc12,IC50,[1],> 50 µM (inactive)
same,IC50,[2],4.25 µM (active)
same,IC50,[3],2.6 µM (active)
same,IC50,[4],> 56.8 µM (not active)
same,IC50,[5],24 µM (active)
same,IC50,[6],> 94.1 µM (inactive)
COC(=O)c1c(NC(=O)c2ccccc2)sc2c1CC(C)(C)OC2,IC50,[7],> 20 µM (inactive)
same,AC50,[8],9.23 µM (active)
same,IC50,[9],> 20 µM (inactive)
same,IC50,[10],> 20 µM (inactive)
same,IC50,[11],> 20 µM (inactive)
CSCCCNC(=O)c1ccc(OC2CCN(CCc3ccccc3)CC2)cc1,EC50,[12],> 92.5 µM (inactive)
same,EC50,[13],> 92.5 µM (inactive)
same,EC50,[14],> 92.5 µM (inactive)
COc1cc2c(cc1OC)C(COc1ccc(F)cc1)NCC2 (centres undefined),AC50,[15],25.2 µM (active)
C/C(=N/NC(=O)c1ccc(C(C)(C)C)cc1)c1ccccn1,AC50,[16],0.497 µM (active)
same,IC50,[17],6.97 µM (active)
same,EC50,[18],0.585 µM (active)
same,IC50,[19],> 80 µM (inactive)
same,EC50,[20],0.455 µM (active)
same,EC50,[21],3.75 µM (active)
same,EC50,[22],> 40 µM (inactive)
same,CC50,[23],2.62 µM (active)
same,AC50,[24],1.31 µM (active)
same,IC50,[25],3.48 µM (active)
same,IC50,[26],> 25 µM (active)
O=C(CSc1ccccn1)Nc1nonc1[N+](=O)[O-],EC50,[27],> 150 µM (not active)
same,EC50,[28],> 150 µM (not active)
same,AC50,[29],5 µM (active)
same,CC50,[23],20.7 µM (active)
same,CC50,[30],24.5 µM (active)
same,EC50,[31],5.77 µM (active)
same,AC50,[32],12.5 µM (active)
same,IC50,[26],> 25 µM (active)

# Source: ChEMBL document CHEMBL1201862, “PubChem BioAssay data set” (2004)
